# Experimental data reported in ChEMBL document CHEMBL1142256, “Phosphoramidate derivatives of hydroxysteroids as inhibitors of prostate-specific membrane antigen” (Bioorg Med Chem Lett, 2008).
# pIC50: −log10 of the molar value.
# Target: Glutamate carboxypeptidase 2 (Homo sapiens, UniProt Q04609)
# Assay: Inhibition of human PSMA
# Sequence of Glutamate carboxypeptidase 2 (Q04609 whole entry): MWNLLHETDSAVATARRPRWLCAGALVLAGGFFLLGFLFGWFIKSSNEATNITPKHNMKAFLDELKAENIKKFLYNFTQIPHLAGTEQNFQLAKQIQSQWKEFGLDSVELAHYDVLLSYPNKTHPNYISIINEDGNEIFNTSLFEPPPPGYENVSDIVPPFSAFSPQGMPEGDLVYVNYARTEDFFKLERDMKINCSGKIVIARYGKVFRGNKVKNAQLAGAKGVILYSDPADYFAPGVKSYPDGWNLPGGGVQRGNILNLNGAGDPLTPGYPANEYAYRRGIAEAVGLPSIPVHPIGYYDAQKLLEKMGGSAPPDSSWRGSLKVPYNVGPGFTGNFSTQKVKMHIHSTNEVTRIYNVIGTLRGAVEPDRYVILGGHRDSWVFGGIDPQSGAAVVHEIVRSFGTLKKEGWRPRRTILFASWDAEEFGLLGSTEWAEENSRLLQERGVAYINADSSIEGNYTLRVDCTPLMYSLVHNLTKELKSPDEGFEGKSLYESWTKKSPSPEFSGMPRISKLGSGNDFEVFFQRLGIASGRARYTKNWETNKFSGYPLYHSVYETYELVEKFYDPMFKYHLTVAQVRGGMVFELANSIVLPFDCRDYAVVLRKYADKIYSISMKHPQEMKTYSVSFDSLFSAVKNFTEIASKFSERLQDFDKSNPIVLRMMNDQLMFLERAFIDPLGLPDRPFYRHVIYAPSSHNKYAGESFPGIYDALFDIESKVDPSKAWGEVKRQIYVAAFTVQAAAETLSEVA
row,Structure (SMILES),pIC50
1,C[C@]12CC[C@@H]3c4ccc(OCCCOP(=O)(O)N[C@@H](CCC(=O)O)C(=O)O)cc4CC[C@H]3[C@@H]1CCC2=O,6.85
2,C[C@]12CC[C@H](OCCCOP(=O)(O)N[C@@H](CCC(=O)O)C(=O)O)C[C@@H]1CC[C@@H]1[C@@H]2CC[C@]2(C)C(=O)CC[C@@H]12,6.36
3,C[C@]12CC[C@H](OP(=O)(O)N[C@@H](CCC(=O)O)C(=O)O)C[C@@H]1CC[C@@H]1[C@@H]2CC[C@]2(C)C(=O)CC[C@@H]12,6.24
4,CC(C)CCC[C@@H](C)[C@H]1CC[C@H]2[C@@H]3CCC4C[C@@H](OP(=O)(O)N[C@@H](CCC(=O)O)C(=O)O)CC[C@]4(C)[C@H]3CC[C@]12C (stereo partly specified),6.36
5,C[C@]12CC[C@@H]3c4ccc(OC(=O)c5ccccc5)cc4CC[C@H]3[C@@H]1CC[C@@H]2OCCCOP(=O)(O)N[C@@H](CCC(=O)O)C(=O)O,6.24
6,CC(C)CCC[C@@H](C)[C@H]1CC[C@H]2[C@@H]3CCC4C[C@@H](OCCCOP(=O)(O)N[C@@H](CCC(=O)O)C(=O)O)CC[C@]4(C)[C@H]3CC[C@]12C (stereo partly specified),6.90
